From article PMC9316063, “Chalcones as Anti-Glioblastoma Stem Cell Agent Alone or as Nanoparticle Formulation Using Carbon Dots as Nanocarrier” (Pharmaceutics, 2022)
“And” between values parts separate entries of the source, which are not always exact repeats. Equal entries are not always repeated. Where two headings read alike, the source gives them in different places.

Assays:
Format in all cases: cell-based, human
Glio3 [1] = assay: MTS cell viability assay, GSC line Glio3; conditions: 72 h, read-out: Glio3 IC50
Excerpt: (§1) The generation and characterization of our GSC lines (Glio3, Glio9, Glio38) have been previously described. In brief, following patient consent, the resected tumors were mechanically and enzymatically dissociated, and red blood cells were removed using Red Cell Lysis buffer (SigmaAldrich, St. Louis, MO, USA). Cells were filtered and plated in a 3:1 ratio of Dulbecco’s Modified Eagle’s medium (DMEM): F12 (Gibco, Carlsbad, CA, USA) media supplemented with 1% penicillin and streptomcycin (penn/strep), 20 ng/mL each of human epidermal growth factor and human fibroblast growth factor, and 2% Gem21 NeuroPlex Serum-Free Supplement (Gemini Bioscience, Sacramento, CA, USA); a formulation consistent for the generation of GBM stem cell lines. Both Glio3 and Glio38 were derived from tumors prior to drug or radiation therapy and grow as neurospheres, whereas Glio9 was derived from a recurrent tumor, following chemo and radiotherapy, and grows adherent. The GBM cell line U87 MG (U87), purchased from ATCC (Manassas, VA, USA) and the pediatric GBM cell line SJ-GBM2 was obtained from Children’s Oncology Group. SJ-GBM2 cell line was derived from a child with glioblastoma post therapy and is used as part of a National Cancer Institute pediatric pre-clinical testing program. Both lines were maintained in RPMI media supplemented with 10% FBS and 1% penn/strep. Mesenchymal stem cells (MSCs) originally derived from human bone marrow aspirates were obtained from Thermo Fisher Scientific and maintained in MEM alpha supplemented with 20% FBS and 1% penn/strep. Prior to drug treatment, MSCs were moved to media with 10% FBS. Upon receipt U87, SJ-GBM2 and MSCs were immediately expanded with several aliquots frozen down for future use. These cell lines are not listed on the most recent NCBI database for misidentification and contamination of human cell lines. All cell lines were routinely tested for mycoplasma using LookOut mycoplasma PCR detection kit (Sigma-Aldrich, St. Louis, MO, USA) according to the manufacturer’s instructions and were maintained at 37 °C in a humidified 5% CO2 incubator.
(§2) The chalcones were dissolved in dimethyl sulfoxide (DMSO) at a concentration of 10 mM, vortexed and subsequently diluted to obtain 1 mM and 0.1 mM stock concentrations. C-dot-trans-chalcones were resuspended in supplement-free media (3:1 ratio DMEM/F12 for GSC experiments or RPMI for non-stem cell line experiments). Cell viability in response to drug treatment was determined using CellTiter 96 AQueous One Solution Cell Proliferation Assay, a colorimetric MTS assay kit (Promega, Madison, WI, USA). The GSCs were seeded into 96-well plates using modified neurosphere media containing 5% FBS at a density of 10,000 cells per well. MSCs and U87 cells were plated at 5000 cells/well while SJ-GBM2 cells were plated at 10,000 cells/well. The next day cells were treated with increasing concentrations of chalcones or C-dot-chalcone conjugate. Next, 72 h later, media was aspirated and 100 μL of a 1:5 solution of MTS to cell culture media was added to each well and incubated for 1–4 h. Optical density was measured at 490 nm using BioTek Synergy HT plate reader. Viability of drug treated cells is expressed as the percent viable cells relative to non-treated cells (100% viability). Experiments were done in triplicate.

[2] = tested on: GSC lines Glio3, Glio9 and Glio38; assay: MTS cell viability assay, all three GSC lines together; conditions: for activity against GSCs: at the concentrations tested; for IC50: 72 h
Excerpt: as §1, §2

Glio9 = assay: MTS cell viability assay, GSC line Glio9; conditions: 72 h, read-out: Glio9 IC50
Excerpt: as §1, §2

Glio38 [3] = assay: MTS cell viability assay, GSC line Glio38; conditions: 72 h, read-out: Glio38 IC50
Excerpt: as §1, §2

Glio3 [4] = assay: Sphere forming assay, Glio3; conditions: 100 nM alone, vs non-treated controls
Protocol: (§3) The effect of chalcones’ clonogenic growth potential was determined using sphere-forming assays. Glio3 and Glio38 neurosphere cell lines were dissociated using Accutase (Gemini Bioscience, Sacramento, CA, USA), filtered using 40-micron filter and single cells were seeded at approximately 50 cells per well in a 96-well plate. Cells were treated with 0.1, 0.25 or 0.5 μM of chalcone or 0.01, 0.05 or 0.1 μM of C-dot chalcone conjugate on day 0 and spheres were manually counted under microscopy on day 14. All experiments were done in triplicate. Representative images were obtained using EVOS XL Core light microscope (Thermo Fisher Scientific, Waltham, MA, USA).

Glio38 [5] = assay: Sphere forming assay, Glio38; conditions: 100 nM alone, vs non-treated controls
Protocol: as §3

[6] = tested on: mesenchymal stem cells (MSC); assay: MTS cell viability assay, mesenchymal stem cells; conditions: 72 h, estimated, >>10 indicates no cell death observed at any of the concentrations tested
Excerpt: as §1, §2

U87 = assay: MTS cell viability assay, U87; conditions: 72 h
Excerpt: The generation and characterization of our GSC lines (Glio3, Glio9, Glio38) have been previously described. In brief, following patient consent, the resected tumors were mechanically and enzymatically dissociated, and red blood cells were removed using Red Cell Lysis buffer (SigmaAldrich, St. Louis, MO, USA). Cells were filtered and plated in a 3:1 ratio of Dulbecco’s Modified Eagle’s medium (DMEM): F12 (Gibco, Carlsbad, CA, USA) media supplemented with 1% penicillin and streptomcycin (penn/strep), 20 ng/mL each of human epidermal growth factor and human fibroblast growth factor, and 2% Gem21 NeuroPlex Serum-Free Supplement (Gemini Bioscience, Sacramento, CA, USA); a formulation consistent for the generation of GBM stem cell lines. […]
The chalcones were dissolved in dimethyl sulfoxide (DMSO) at a concentration of 10 mM, vortexed and subsequently diluted to obtain 1 mM and 0.1 mM stock concentrations. […] Cell viability in response to drug treatment was determined using CellTiter 96 AQueous One Solution Cell Proliferation Assay, a colorimetric MTS assay kit (Promega, Madison, WI, USA). […] Optical density was measured at 490 nm using BioTek Synergy HT plate reader. Viability of drug treated cells is expressed as the percent viable cells relative to non-treated cells (100% viability). […]

[7] = Homo sapiens, Mesenchymal stem cells
[8] = Homo sapiens, average of Glio3, Glio9, Glio38, read-out: average IC50 across the 3 GSC lines
[9] = Homo sapiens, in all three GSC lines, read-out: IC50 in all GSC lines (bound stated in text)
[10] = average of Glio3, Glio9, Glio38, read-out: average IC50 across the 3 GSC lines

Compound	IC50 (Glio3 [1]; Homo sapiens, MTS, ±SEM)	activity against GSCs [2]	IC50 (Glio9; Homo sapiens, MTS, ±SEM)	IC50 (Glio38 [3]; Homo sapiens, MTS, ±SEM)	IC50 [6, 7]	IC50 [2, 9]	also measured
COCOc1ccc(C=CC(=O)c2ccc(N)cc2)cc1OC [Chalcone 3h]	> 10 µM	not active at concentrations tested	> 10 µM	> 10 µM			
Nc1ccc(C(=O)C=Cc2ccc(N3CCOCC3)cc2)cc1 [Chalcone 3m]	> 10 µM	neither the morpholino or the methoxymethoxy derivatives were active against GSCs	> 10 µM	> 10 µM			
transferrin: transferrin alone, targeting ligand used in the conjugates							neurosphere formation (Glio3 [4]): neither c-dots or transferrin alone significantly reduced neurosphere formation; neurosphere formation (Glio38 [5]): neither c-dots or transferrin alone significantly reduced neurosphere formation
COc1cc(/C=C/C(=O)c2ccc(OCC(=O)O)cc2)cc(OC)c1OC [Chalcone 4f]	> 10 µM	active	> 10 µM	> 10 µM			
Nc1ccc(C(=O)/C=C/c2ccccn2)cc1 [Chalcone 3p]	6.6 ± 1.2 µM		5.2 ± 0.5 µM	6.4 ± 2 µM	8 µM	< 10 µM	IC50 [2, 8]: 6.1 ± 0.4 µM
COc1ccc(OC)c(/C=C/C(=O)c2ccc(NC(C)=O)cc2)c1 [Chalcone 3d]	6.9 ± 1.6 µM	active	5.5 ± 1.1 µM	7.9 ± 1.7 µM	16.8 µM	< 10 µM	
COC(=O)COc1ccc(C(=O)/C=C/c2cc(OC)c(OC)c(OC)c2)cc1 [Chalcone 4e]	10.4 ± 1.4 µM	active	7 ± 1.3 µM	18.4 µM			
COc1cc(/C=C/C(=O)c2cccc(N)c2)cc(OC)c1OC [Chalcone 5a, 3′-Amino-3,4,5-trimethoxychalcone]	8 ± 1.5 µM		5.1 ± 0.6 µM	5 ± 0.8 µM	5.5 µM		
Nc1ccc(C(=O)/C=C/c2ccoc2)cc1 [Chalcone 3s]	> 10 µM		> 10 µM	> 10 µM			
Nc1ccc(C(=O)/C=C/c2ccc(O)cc2)cc1 [Chalcone 3i]		not active at concentrations tested					IC50 (Glio3 [1]; Homo sapiens): > 10 µM; IC50 (Glio9; Homo sapiens): > 10 µM; IC50 (Glio38 [3]; Homo sapiens): > 10 µM
Nc1ccc(C(=O)/C=C/c2c[nH]c3ccccc23)cc1 [Chalcone 3t]	> 10 µM		> 10 µM	> 10 µM			
COc1cccc(/C=C/C(=O)c2ccc(O)cc2)c1OC [Chalcone 4a]	11.4 ± 0.9 µM		14.2 ± 3 µM	9.1 ± 0.7 µM	> 10 µM		
COc1ccc(/C=C/C(=O)c2ccc(N)cc2)cc1OC [Chalcone 3b]	> 10 µM		> 10 µM	> 10 µM			
Nc1ccc(C(=O)/C=C/c2cccc(Br)c2)cc1 [Chalcone 3x]	9.3 ± 1.1 µM		7 ± 0.5 µM	5.9 ± 0.8 µM	28.1 µM	< 10 µM	IC50 [2, 8]: 7.4 µM
Nc1ccc(C(=O)/C=C/c2cccc(Cl)c2)cc1 [Chalcone 3v]	9.1 ± 0.6 µM		5.8 ± 0.9 µM	6.7 ± 0.6 µM	25.7 µM	< 10 µM	IC50 [2, 8]: 7.2 µM
COc1cc(/C=C/C(=O)c2ccc(OC(C)=O)cc2)cc(OC)c1OC [Chalcone 4d]	7.7 ± 0.4 µM		6.2 ± 0.9 µM	6.9 ± 0.3 µM	> 10 µM	< 10 µM	
COc1cc(/C=C/C(=O)c2ccc(O)cc2)cc(OC)c1 [Chalcone 4b]	6.7 ± 0.2 µM		7 ± 0.4 µM	6.4 ± 0.4 µM	17.1 µM	< 10 µM	
CCOc1cc(C=CC(=O)c2ccc(N)cc2)ccc1O [Chalcone 3j]	> 10 µM	not active at concentrations tested	> 10 µM	> 10 µM			
3,4,5-trimethoxy chalcone [Chalcone 3e]							IC50 (Glio3 [1]; MTS, ±SEM): 10.9 ± 0.8 µM; IC50 [6]: 46.7 µM; IC50 ([6]; listed as 4′-amino-trimethoxy chalcone): ~50 µM; IC50 [2, 10]: < 10 µM and 9.7 µM; IC50 ([2]; in all three GSC lines, read-out: IC50 in all GSC lines (bound stated in text)): < 15 µM; IC50 (Glio9; MTS, ±SEM): 8.9 ± 1.6 µM; IC50 (Glio38 [3]; MTS, ±SEM): 9.2 ± 0.8 µM
COc1cc(/C=C/C(=O)c2ccc(NC(C)=O)cc2)cc(OC)c1 [Chalcone 3g]	6.2 ± 1.3 µM	active	4.8 ± 0.6 µM	5.4 ± 0.6 µM	7.4 µM	< 10 µM	
COc1cc(/C=C/C(=O)c2ccc(N)cc2)ccc1O [Chalcone 3l]	> 10 µM		> 10 µM	> 10 µM			
COc1cc(/C=C/C(=O)c2ccc(N)cc2)cc(OC)c1O [Chalcone 3k]	> 10 µM	not active at concentrations tested	> 10 µM	> 10 µM			activity against GSCs ([2]; listed as 4k): eliminates activity
Nc1ccc(C(=O)/C=C/c2ccco2)cc1 [Chalcone 3r]	> 10 µM		> 10 µM	> 10 µM			
CN(C)c1ccc(/C=C/C(=O)c2ccc(N)cc2)cc1 [Chalcone 3n]	> 10 µM	inactive at the concentrations tested	> 10 µM	> 10 µM			
Nc1ccc(C(=O)/C=C/c2ccc(Cl)cc2)cc1 [Chalcone 3w]	12.3 ± 1.1 µM		7 ± 0.3 µM	7.9 ± 0.6 µM	80.1 µM	< 15 µM	IC50 [2, 8]: 9.1 µM
COc1ccc(OC)c(/C=C/C(=O)c2ccc(N)cc2)c1 [Chalcone 3c]	12 ± 1.8 µM		9.3 ± 0.6 µM	10.4 ± 2 µM	> 10 µM	< 15 µM	
Nc1ccc(C(=O)/C=C/c2ccccn2)cc1 [Chalcone 3q]							IC50 (Glio3 [1]; MTS, ±SEM): 8.3 ± 0.7 µM; IC50 [6]: > 10 µM; IC50 [2, 10]: 7.2 ± 0.5 µM; IC50 (Glio9; MTS, ±SEM): 6.6 ± 0.5 µM; IC50 (Glio38 [3]; MTS, ±SEM): 6.6 ± 0.7 µM
3,5-dimethoxy chalcone [Chalcone 3f]							IC50 (Glio3 [1]; MTS, ±SEM): 7.8 ± 0.9 µM; IC50 [6]: 74.8 µM; IC50 [2, 10]: 8.2 ± 0.8 µM; IC50 (U87): 8.5 ± 0.04 µM; IC50 (Glio9; MTS, ±SEM): 9.7 ± 2 µM; IC50 (Glio38 [3]; MTS, ±SEM): 6.5 ± 0.9 µM
Nc1ccc(C(=O)/C=C/c2cccc(F)c2)cc1 [Chalcone 3u]	9.9 ± 0.3 µM		7.2 ± 0.6 µM	8.8 ± 1.4 µM	15.6 µM	< 10 µM	IC50 [2, 8]: 8.6 µM
